# Measurements reported in patent US12716888B2, “Composition for diagnosis or treatment of anticancer drug resistance” (priority 2020, dated 2026).
# Experiments:
# [1] = system: ECF-resistant MKN-74 cells; test: Crystal violet staining and WST-1 analysis of regrowth after ECF treatment of NINJ2 knockdown cells; type: cell-based, human; details: 3 weeks after ECF treatment; NINJ2 knockdown ECF-resistant MKN-74 cells
# Experimental: To evaluate whether NINJ2 is involved in drug resistance, a stable NINJ2 knockdown (K/D) ECF-resistant cancer cell line was prepared using shRNA lentiviral particles and puromycin. More specifically, for stable NINJ2 knockdown in ECF-resistant MKN-74 cells, two shRNAs (TRCN0000063773 (Clone-1) and TRCN0000063775 (Clone-2)) targeting different partial regions of NINJ2 genes (Isoform-1, Isoform-2 and Isoform-3) as shown in Table 1 below were used, and a non-targeting pLKO.1-puro shRNA control (SHC002) was used as a negative control. The shRNA clones (TRCN0000063773, TRCN0000063775 and SHC002) containing the pMDLg/pRRE, pRSV-Rev and pMD2.G plasmids, respectively, were transfected into 293T cells using Fugene HD (Promega) according to the manufacturer's instructions. After 48 hours, each supernatant was collected and filtered, and ECF-resistant MKN-74 cells were transduced with lentiviral particles and cultured in a growth medium containing puromycin. After NINJ2 knockdown in the lentivirus-transduced MKN-74 cells was confirmed using qRT-PCR, the cells were treated with ECF, and an examination was made as to whether cancer cells in the negative control (Mock) and the shNINJ2 groups (clone 1 and clone 2) re-grew.
# [2] = system: ECF-resistant cancer cells (RES) from the MKN-28/74 cell line; test: Nude mouse xenograft of ECF-resistant MKN-28/74 cells given ECF and siRNA; type: in vivo, Balb/c nude mice; details: ECF (5.7 mg/kg epirubicin, 6.67 mg/kg cisplatin, 22 mg/kg 5-FU) intratumorally once a week; NINJ2 mRNA expression inhibited
# Experimental: FIGS. 9A and 9B show the results of measuring changes in tumor volume and weight after transplanting wild-type or scrambled siRNA RES and siNINJ2 RES cancer cell lines from the MKN-28/74 cell line into nude mice and then administering ECF and siRNA to the nude mice when the tumor volume reached 100 mm^3, according to one example of the present invention.
# A mouse model was prepared by xenografting Balb/c nude mice with the spheroids prepared from the MKN-28/74 cell line by the method of Example 3. Specifically, […] ECF-resistant cancer cells (ECF-R cancer cells) and parental cancer cells were subcutaneously injected into Balb/c nude mice, respectively, and an examination was made as to whether the animal model xenografted with the ECF-resistant cancer cells (RES) established in vitro had acquired ECF drug resistance. […] To this end, 5.7 mg/kg of epirubicin, 6.67 mg/kg of cisplatin and 22 mg/kg of 5-FU were administered intratumorally to xenograft model mice having a tumor size of 100 mm^3 once a week for 15 days, and the tumor weight and the tumor volume were measured every 3 days using digital calipers. […]
# Referring to FIG. 9A, it was confirmed that the tumor volume changed after the ECF drugs were administered to the animal model xenografted with each cell line group. FIG. 9B depicts graphs showing the results of quantifying the changes in the tumor volume and weight.
Substance,recurrence and regrowth of cancer cells compared to negative control (Mock) [1],tumor volume compared to the RES group [2],tumor weight compared to the RES group [2]
"clone-1: NINJ2-targeting shRNA, lentiviral; target region SEQ ID NO: 5, hairpin sequence SEQ ID NO: 9 (guide CCGGCGTGGTCATTGCACGGCTGAACTCGAGTTCAGCCGTGCAATGACCACGTTTTTG)",significantly inhibited,,
"clone-2: NINJ2-targeting shRNA, lentiviral; target region SEQ ID NO: 6, hairpin sequence SEQ ID NO: 10 (guide CCGGCTGAACCTGAATGAGGTAGAACTCGAGTTCTACCTCATTCAGGTTCAGTTTTTG)",significantly inhibited,,
"siNINJ2: siRNA against NINJ2, sense SEQ ID NO: 11 and antisense SEQ ID NO: 12 (sense GUAAGGCAUGUCUGUCUAAGGCC; antisense GGCCUUAGACAGACAUGCCUUAC; listed as RNA, chemistry not given here)",,significantly decreased,significantly decreased
